Experimental data published in ChEMBL document CHEMBL1255512, “Pyrazolo[1,5-a]pyrimidine acetamides: 4-Phenyl alkyl ether derivatives as potent ligands for the 18 kDa translocator protein (TSPO)” (Bioorg Med Chem Lett, 2010).

How the values were obtained:
[1] = biological target: D(1A) dopamine receptor (Homo sapiens) (UniProt P21728); test: Inhibition of D1 dopamine receptor at 10 uM
[2] = biological target: 5-hydroxytryptamine receptor 3A (Homo sapiens) (UniProt P46098); test: Inhibition of 5-HT3 receptor at 10 uM
5-hydroxytryptamine receptor 3A (Homo sapiens), sequence (P46098 whole entry): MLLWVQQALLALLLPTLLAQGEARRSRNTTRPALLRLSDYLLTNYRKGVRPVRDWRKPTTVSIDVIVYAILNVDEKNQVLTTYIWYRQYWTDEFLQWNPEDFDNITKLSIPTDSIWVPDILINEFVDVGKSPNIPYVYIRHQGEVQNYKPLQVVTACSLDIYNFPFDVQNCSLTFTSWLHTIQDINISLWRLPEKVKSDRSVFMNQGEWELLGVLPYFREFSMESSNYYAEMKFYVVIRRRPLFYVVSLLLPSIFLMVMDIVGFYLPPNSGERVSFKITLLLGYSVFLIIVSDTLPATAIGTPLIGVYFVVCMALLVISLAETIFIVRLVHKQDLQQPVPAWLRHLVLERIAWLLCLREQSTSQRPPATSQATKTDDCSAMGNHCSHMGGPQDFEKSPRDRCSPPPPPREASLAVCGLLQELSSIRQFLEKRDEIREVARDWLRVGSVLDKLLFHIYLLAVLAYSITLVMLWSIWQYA

[3] = biological target: T1, Delta-type opioid receptor (Homo sapiens, UniProt P41143); test: Inhibition of delta opioid receptor at 10 uM
T1 sequence (P41143 whole entry): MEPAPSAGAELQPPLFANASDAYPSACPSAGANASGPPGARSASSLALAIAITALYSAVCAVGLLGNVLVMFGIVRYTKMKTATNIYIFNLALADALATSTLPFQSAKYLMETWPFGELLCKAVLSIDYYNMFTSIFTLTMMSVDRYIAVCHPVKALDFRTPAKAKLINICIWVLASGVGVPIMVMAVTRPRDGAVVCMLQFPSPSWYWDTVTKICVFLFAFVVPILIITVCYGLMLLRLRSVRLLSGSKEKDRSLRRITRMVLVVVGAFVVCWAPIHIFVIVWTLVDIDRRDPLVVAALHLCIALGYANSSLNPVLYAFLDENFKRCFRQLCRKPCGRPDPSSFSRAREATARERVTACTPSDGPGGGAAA

[4] = biological target: T2, Kappa-type opioid receptor (Homo sapiens, UniProt P41145); test: Inhibition of kappa opioid receptor at 10 uM
T2 sequence (P41145 whole entry): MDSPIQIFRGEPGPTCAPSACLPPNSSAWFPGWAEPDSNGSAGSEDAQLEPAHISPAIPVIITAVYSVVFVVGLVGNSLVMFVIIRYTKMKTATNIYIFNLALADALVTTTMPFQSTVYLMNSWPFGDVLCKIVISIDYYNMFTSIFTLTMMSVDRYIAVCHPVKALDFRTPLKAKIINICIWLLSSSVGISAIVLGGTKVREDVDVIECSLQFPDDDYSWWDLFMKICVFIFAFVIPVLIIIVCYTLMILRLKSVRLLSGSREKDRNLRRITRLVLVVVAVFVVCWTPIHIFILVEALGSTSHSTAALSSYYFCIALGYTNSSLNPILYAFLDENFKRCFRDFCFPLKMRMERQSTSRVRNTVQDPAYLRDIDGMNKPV

[5] = biological target: Alpha-1B adrenergic receptor (Homo sapiens, UniProt P35368); test: Inhibition of Alpha-1B adrenergic receptor
Alpha-1B adrenergic receptor, sequence (P35368 whole entry): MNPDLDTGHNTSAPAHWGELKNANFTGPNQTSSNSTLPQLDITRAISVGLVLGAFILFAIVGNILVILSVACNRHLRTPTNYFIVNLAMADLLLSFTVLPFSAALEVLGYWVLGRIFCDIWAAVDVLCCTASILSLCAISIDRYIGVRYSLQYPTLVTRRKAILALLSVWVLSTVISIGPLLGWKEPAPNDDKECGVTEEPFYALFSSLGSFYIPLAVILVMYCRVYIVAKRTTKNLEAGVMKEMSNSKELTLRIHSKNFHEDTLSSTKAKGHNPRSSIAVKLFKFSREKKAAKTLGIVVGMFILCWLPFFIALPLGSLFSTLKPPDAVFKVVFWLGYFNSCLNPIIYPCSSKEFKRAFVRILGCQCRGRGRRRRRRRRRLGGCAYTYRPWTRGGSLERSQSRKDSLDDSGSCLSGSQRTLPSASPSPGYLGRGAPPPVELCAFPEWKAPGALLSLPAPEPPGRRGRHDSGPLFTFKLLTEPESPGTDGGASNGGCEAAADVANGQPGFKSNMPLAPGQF

[6] = biological target: T1, Delta-type opioid receptor; test: Inhibition of delta opioid receptor
[7] = biological target: T2, Kappa-type opioid receptor; test: Inhibition of kappa opioid receptor
[8] = biological target: Alpha-2A adrenergic receptor (Homo sapiens) (UniProt P08913); test: Inhibition of alpha2A adrenergic receptor at 10 uM
Alpha-2A adrenergic receptor (Homo sapiens), sequence (P08913 whole entry): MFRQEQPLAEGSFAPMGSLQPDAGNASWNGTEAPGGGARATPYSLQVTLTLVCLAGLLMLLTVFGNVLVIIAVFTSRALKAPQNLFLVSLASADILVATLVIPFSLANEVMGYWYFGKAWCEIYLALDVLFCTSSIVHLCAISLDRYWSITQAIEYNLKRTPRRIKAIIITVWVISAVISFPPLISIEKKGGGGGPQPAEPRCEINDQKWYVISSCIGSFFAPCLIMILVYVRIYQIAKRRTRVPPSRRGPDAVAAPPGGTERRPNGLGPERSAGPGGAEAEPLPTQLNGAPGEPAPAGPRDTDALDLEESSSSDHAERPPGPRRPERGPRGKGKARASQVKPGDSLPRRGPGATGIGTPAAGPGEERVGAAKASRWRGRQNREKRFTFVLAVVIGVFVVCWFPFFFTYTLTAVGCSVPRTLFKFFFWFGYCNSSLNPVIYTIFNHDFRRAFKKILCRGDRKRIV

[9] = biological target: 5-hydroxytryptamine receptor 2B (Homo sapiens, UniProt P41595); test: Inhibition of 5-HT2B receptor
5-hydroxytryptamine receptor 2B, sequence (P41595 whole entry): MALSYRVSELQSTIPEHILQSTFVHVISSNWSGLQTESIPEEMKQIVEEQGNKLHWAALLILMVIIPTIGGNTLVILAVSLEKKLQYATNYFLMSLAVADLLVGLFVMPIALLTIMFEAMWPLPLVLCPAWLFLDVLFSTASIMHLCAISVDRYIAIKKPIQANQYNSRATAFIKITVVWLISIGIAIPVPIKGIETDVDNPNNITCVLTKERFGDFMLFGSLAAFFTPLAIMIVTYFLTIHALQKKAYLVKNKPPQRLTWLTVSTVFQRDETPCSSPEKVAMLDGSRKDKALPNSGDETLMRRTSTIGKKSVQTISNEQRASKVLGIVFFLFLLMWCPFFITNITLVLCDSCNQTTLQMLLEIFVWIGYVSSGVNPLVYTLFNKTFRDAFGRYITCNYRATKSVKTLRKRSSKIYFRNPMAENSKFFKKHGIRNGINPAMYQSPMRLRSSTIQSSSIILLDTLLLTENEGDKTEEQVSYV

D(1A) dopamine receptor (Homo sapiens), sequence (P21728 whole entry): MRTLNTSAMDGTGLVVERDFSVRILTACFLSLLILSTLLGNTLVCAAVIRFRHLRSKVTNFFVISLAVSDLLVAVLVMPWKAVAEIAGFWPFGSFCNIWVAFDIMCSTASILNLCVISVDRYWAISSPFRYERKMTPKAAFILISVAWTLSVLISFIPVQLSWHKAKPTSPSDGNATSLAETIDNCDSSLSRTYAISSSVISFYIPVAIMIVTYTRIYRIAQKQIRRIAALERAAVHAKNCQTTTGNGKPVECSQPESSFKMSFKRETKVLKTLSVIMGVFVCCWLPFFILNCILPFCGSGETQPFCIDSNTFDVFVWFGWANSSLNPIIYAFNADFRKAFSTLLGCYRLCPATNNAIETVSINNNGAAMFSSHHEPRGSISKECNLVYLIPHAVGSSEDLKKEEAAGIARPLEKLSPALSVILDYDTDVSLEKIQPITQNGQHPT

CCOc1ccc(-c2nn3c(C)cc(C)nc3c2CC(=O)N(CC)CC)cc1
inhibition [1]: < 50%
inhibition [2]: < 50%
inhibition [3]: < 50%
inhibition [4]: < 50%

CCCOc1ccc(-c2nn3c(C)cc(C)nc3c2CC(=O)N(CC)CC)cc1
Ki [5]: > 10 µM
inhibition [1]: < 50%
Ki [6]: > 10 µM
Ki [7]: > 10 µM

CCCCOc1ccc(-c2nn3c(C)cc(C)nc3c2CC(=O)N(CC)CC)cc1
inhibition [8]: < 50%
inhibition [1]: < 50%
Ki [9]: 8.36 µM
Ki [6]: > 10 µM
Ki [7]: > 10 µM

C#CCOc1ccc(-c2nn3c(C)cc(C)nc3c2CC(=O)N(CC)CC)cc1
inhibition [8]: < 50%
inhibition [1]: < 50%
inhibition [2]: < 50%
inhibition [3]: < 50%
inhibition [4]: < 50%
